From the NIST ThermoML archive (doi:10.1021/je800110r)
Numbers after ± are expanded uncertainties.

Settings: 283.15 K, Liquid, Vibrating tube method

CCCCCCCCCC [decane]
Settings	mass density [kg/m3]
11428 kPa	745.5 ± 2
11443 kPa	745.5 ± 2
11462 kPa	745.5 ± 2
11483 kPa	745.5 ± 2
11498 kPa	745.5 ± 2
11518 kPa	745.4 ± 2
11530 kPa	745.6 ± 2
11543 kPa	745.5 ± 2
11625 kPa	745.7 ± 2
11647 kPa	745.7 ± 2
11663 kPa	745.7 ± 2
11681 kPa	745.6 ± 2
11774 kPa	745.8 ± 2
11790 kPa	745.8 ± 2
11806 kPa	745.8 ± 2
11824 kPa	745.8 ± 2
11838 kPa	745.7 ± 2
11856 kPa	745.8 ± 2
11876 kPa	745.9 ± 2
11889 kPa	745.8 ± 2
11904 kPa	745.8 ± 2
11924 kPa	745.9 ± 2
11943 kPa	745.8 ± 2
11954 kPa	745.8 ± 2
11969 kPa	745.9 ± 2
11982 kPa	746 ± 2
11997 kPa	745.9 ± 2
12010 kPa	746 ± 2
12024 kPa	745.9 ± 2
12038 kPa	746 ± 2
12052 kPa	745.9 ± 2
12068 kPa	745.9 ± 2
12080 kPa	746 ± 2
12094 kPa	745.9 ± 2
12108 kPa	746 ± 2
12130 kPa	746 ± 2
12149 kPa	746 ± 2
12165 kPa	745.9 ± 2
12180 kPa	746.1 ± 2
12197 kPa	746 ± 2
12211 kPa	746 ± 2
12226 kPa	746 ± 2
12241 kPa	745.9 ± 2
12262 kPa	746.1 ± 2
12280 kPa	746.1 ± 2
12300 kPa	746 ± 2
12319 kPa	746.1 ± 2
12339 kPa	746.1 ± 2
12356 kPa	746.1 ± 2
12371 kPa	746.1 ± 2
12386 kPa	746.2 ± 2
12401 kPa	746.1 ± 2
12415 kPa	746.2 ± 2
12431 kPa	746.2 ± 2
12451 kPa	746.3 ± 2
12469 kPa	746.2 ± 2
12484 kPa	746.2 ± 2
12505 kPa	746.2 ± 2
12519 kPa	746.2 ± 2
12535 kPa	746.3 ± 2
12550 kPa	746.3 ± 2
12571 kPa	746.3 ± 2
12588 kPa	746.3 ± 2
12602 kPa	746.3 ± 2
12618 kPa	746.3 ± 2
12633 kPa	746.3 ± 2
12649 kPa	746.3 ± 2
12665 kPa	746.3 ± 2
12678 kPa	746.3 ± 2
12693 kPa	746.4 ± 2
12709 kPa	746.4 ± 2
12725 kPa	746.3 ± 2
12741 kPa	746.3 ± 2
12756 kPa	746.4 ± 2
12772 kPa	746.5 ± 2
12794 kPa	746.4 ± 2
12812 kPa	746.3 ± 2
12837 kPa	746.4 ± 2
12855 kPa	746.5 ± 2
12877 kPa	746.5 ± 2
12895 kPa	746.6 ± 2
12914 kPa	746.5 ± 2
12933 kPa	746.5 ± 2
12955 kPa	746.4 ± 2
12972 kPa	746.5 ± 2
12994 kPa	746.6 ± 2
13013 kPa	746.5 ± 2
13033 kPa	746.5 ± 2
13052 kPa	746.5 ± 2
13075 kPa	746.5 ± 2
13095 kPa	746.6 ± 2
13117 kPa	746.6 ± 2
13316 kPa	746.8 ± 2
13337 kPa	746.7 ± 2
13598 kPa	746.9 ± 2
13632 kPa	746.9 ± 2
13652 kPa	747 ± 2
13673 kPa	747 ± 2
13697 kPa	746.9 ± 2
13715 kPa	747 ± 2
13740 kPa	747 ± 2
13765 kPa	747.1 ± 2
13787 kPa	747.1 ± 2
13809 kPa	747 ± 2
13831 kPa	747.1 ± 2
13856 kPa	747 ± 2
13875 kPa	747.2 ± 2
13901 kPa	747.1 ± 2
13923 kPa	747.1 ± 2
13949 kPa	747.1 ± 2
13968 kPa	747.2 ± 2
13994 kPa	747.2 ± 2
14017 kPa	747.2 ± 2
14039 kPa	747.2 ± 2
14062 kPa	747.3 ± 2
14088 kPa	747.2 ± 2
14138 kPa	747.2 ± 2
14164 kPa	747.3 ± 2
14191 kPa	747.4 ± 2
14216 kPa	747.4 ± 2
14359 kPa	747.4 ± 2
14385 kPa	747.5 ± 2
14411 kPa	747.4 ± 2
14428 kPa	747.6 ± 2
14446 kPa	747.5 ± 2
14481 kPa	747.5 ± 2
14499 kPa	747.5 ± 2
14528 kPa	747.6 ± 2
14543 kPa	747.6 ± 2
14563 kPa	747.5 ± 2
14578 kPa	747.6 ± 2
14599 kPa	747.6 ± 2
14614 kPa	747.6 ± 2
14632 kPa	747.6 ± 2
14650 kPa	747.6 ± 2
14668 kPa	747.7 ± 2
14686 kPa	747.7 ± 2
